According to patent USH1168H, “Inhibitors of protein kinase C activity as protectors against septic shock and reducers of ARDS” (priority 1991, dated 1993):
“Also recorded” adds a separate entry of the source.

Assays:
[1] = test system: cAMP dependent kinase; conditions: to an extent comparable to H7 (20); cited from earlier work
[2] = test system: cGMP dependent kinase; conditions: to an extent comparable to H7 (20); cited from earlier work
[3] = test system: intact endothelium rat aortic rings; assay: NE-induced contraction of intact rat aortic rings after 16 h incubation with LPS and/or PKC inhibitors; format: cell-based; conditions: for EC50: Rattus norvegicus, 16 h, intact endothelium, read-out: EC50 value for NE stimulated contraction (EC50 of the agonist NE)
Protocol: FIG. 1 is a graph showing contraction to cumulative doses of NE by rat aortic rings incubated for 16 hr in combinations of control, LPS (endotoxin or lipopolysaccharide), H7, and N-(2-guanidinoethyl)-5-isoquinolinesulfonamide (HA1004; a negative control for H7) treated media. (Panel A) Responses by rings incubated in medium only (open circles), medium plus H7 (25 μM, closed circles), medium containing LPS (10 ng/ml, open triangles), and medium containing LPS plus H7 (closed triangles). (Panel B) For clarity in presentation, responses by rings incubated in medium only (open circles) and LPS treated medium (open triangles) are reproduced from Panel A. Additional rings were incubated in medium plus HA1004 (25 μM, closed circles), and medium containing LPS plus HA1004 (closed triangles). Six rings were prepared from each rat and one ring allocated into each medium formulation. […] The curves are the best fit of the data by nonlinear least squares to a polynomial model. N=8 rats.
(§1) Tissue preparation and incubation. Male Sprague-Dawley rats (250-350 g, Taconic Farms, Germantown, N.Y.) were used. Rat thoracic aortic rings were prepared and incubated as detailed by McKenna (14). In brief, 4 or 6 rings were prepared from each rat. Care was taken during dissection to maintain the patency of the endothelium. Some aortas were de-endothelialized before sectioning into rings by perfusion with phosphate buffered saline (PBS) containing 1% deoxycholate for 30 sec followed by a PBS and bubble rinse for 5 min. Rings were incubated in DME (Dulbecco's Modified Eagle's medium) supplemented with 1% fetal calf serum, 100 μg/ml streptomycin, and 100 U/ml penicillin. During incubation, the rings were exposed to combinations of LPS (10 or 35 ng/ml), H7 (25 μM), HA1004 (N-(2-guanidinoethyl)-5-isoquinolinesulfonamide) (25 μM), sphingosine (20 μM), or their vehicles. […] Rings used in measures of contractile performance were placed individually in Petri dishes containing 1.2 ml DME and were distributed so that tissue isolated from each aorta was allocated to every combination of treatments within an experiment. […] All tissue isolated from an aorta (six rings) was allocated to a single treatment. The media and rings were rotated gently for 16-18 hr in an incubator at 37° C. under a 95% O2 -5% CO2 atmosphere.
(§2) Measurement of aortic ring contraction. After incubation, rings were mounted in tissue baths, equilibrated, and pre-contracted as previously detailed (14). These procedures required approximately 90 min. Rings were maintained in Krebs Ringer Bicarbonate buffer (KRB, 14). Contractions by six or eight rings were measured simultaneously and recorded on multichannel strip chart recorders. […] Other rings were contracted by withdrawing KRB from the tissue baths and adding increasing volumes of a high KCl KRB (120 mM, made by equimolar substitution of KCl for NaCl) to the baths to yield final KCl concentrations of 10 to 80 mM. All rings were blotted and weighed after experiments were completed.
(§3) Statistics. […] Tests for differences between EC50 values were based on log EC50 values (17). EC50 values were then converted to […] means to allow expression as nanomolar concentrations. Examination of differences among four or six treatment means was by randomized blocks analysis of variance; if significant differences were present, then pairs of means were tested by Student-Newman-Keuls a posteriori tests (18). Paired t-tests were used to assess differences between two treatment means. […] Differences with probabilities of 0.05 or less were accepted as significant. All data are expressed as means±SEM.

[4] = test system: myosin light chain kinase; conditions: to an extent comparable to H7 (20); cited from earlier work
[5] = test system: intact endothelium rat aortic rings; assay: KCl-induced contraction of intact rat aortic rings after 16 h incubation with LPS and/or PKC inhibitors; format: cell-based; conditions: for EC50: Rattus norvegicus, 16 h, intact endothelium, read-out: EC50 value for KCl stimulated contraction (EC50 of the agonist KCl)
Protocol: FIG. 2 is a graph showing contraction to cumulative doses of KCl by rat aortic rings incubated for 16 hr in combinations of control, LPS, H7, and HA1004 treated media. (Panel A) Response by rings incubated in medium only (open circles), medium plus H7 (25 μM, closed circles), medium containing LPS (10 ng/ml, open triangles), and medium containing LPS plus H7 (closed triangles). (Panel B) For clarity in presentation, responses by rings incubated in medium only (open circles) and LPS treated medium (open triangles) are reproduced from Panel A. Additional rings were incubated in medium plus HA1004 (25 μM, closed circles), and medium containing LPS plus HA1004 (closed triangles). Rings were prepared and data is presented as described in FIG. 1. N=6 rats.
as §1, §2, §3

[6] = test system: PKC; conditions: literature (19, 42); cited from earlier work
[7] = test system: de-endothelialized rat aortic rings; assay: KCl-induced contraction of de-endothelialized rat aortic rings after 16 h incubation with LPS and/or sphingosine; format: cell-based; conditions: for EC50: Rattus norvegicus, 16 h, de-endothelialized, read-out: EC50 value for KCl stimulated contraction (EC50 of the agonist KCl)
Protocol: (§4) FIG. 3 is a graph showing contraction to cumulative doses of NE and KCl by rat de-endothelialized aortic rings incubated for 16 hr in combinations of control, LPS, and sphingosine treated media. (Panel A) Contraction to NE by rings incubated in medium only (open circles), medium plus sphingosine (20 μM, closed circles), medium containing LPS (35 ng/ml, open triangles), and medium containing LPS plus sphinogosine (closed triangles). (Panel B) Contraction to KCl by rings incubated and denoted with the same symbols as detailed above. Four rings were prepared from each rat and one ring allocated into each medium formulation to evaluate responses to NE. Rings were similarly prepared to determine responses to KCl. Data is presented as in FIG. 1. N=7 rats apiece for assessment of responses to NE and KCl.
as §1, §2
as §3, with “means±SEM. […]” for “means±SEM.”

[8] = stated without test or source; cited from earlier work
[9] = test system: de-endothelialized rat aortic rings; assay: NE-induced contraction of de-endothelialized rat aortic rings after 16 h incubation with LPS and/or sphingosine; format: cell-based; conditions: for EC50: Rattus norvegicus, 16 h, de-endothelialized, read-out: EC50 value for NE stimulated contraction (EC50 of the agonist NE)
Protocol: as §4, §1, §2, §3
The amelioration of LPS-induced vascular contractile dysfunction by inhibition of PKC was further explored in de-endothelialized aortic rings incubated with D-sphingosine. The de-endothelialized rings were incubated with 35 ng/ml LPS instead of 10 ng/ml because such rings are not as sensitive to LPS as tissue with an intact endothelium (14). The effective removal of the endothelium was confirmed by the lack of relaxation to acetylcholine by pre-contracted rings during the conditioning procedure.

[10] = LPS 10 ng/ml plus inhibitor 25 μM
[11] = LPS-treated media (10 ng/ml), alone or plus inhibitor 25 μM
[12] = control media (no LPS) plus inhibitor 25 μM
[13] = inhibitor 25 μM by itself, no LPS
[14] = LPS-treated media, alone or plus sphingosine 20 μM
[15] = control media (no LPS) plus sphingosine 20 μM
[16] = sphingosine 20 μM plus LPS 35 ng/ml

## N=C(N)NCCNS(=O)(=O)c1cccc2cnccc12 [HA1004, N-(2-guanidinoethyl)-5-isoquinolinesulfonamide]
[1]
  inhibition of cAMP dependent kinase: inhibits
[2]
  inhibition of cGMP dependent kinase: inhibits
[3]; [10]
  EC50 and Emax (sensitivity and maximum contraction) to NE versus control tissue: significantly depressed sensitivity (Table I) and maximum contraction (FIG. 1B) to NE
[3]; [11]
  EC50: 2760 nM
[3]; [12]
  EC50: 186 nM
[3]; co-incubation, inhibitor 25 μM, LPS 10 ng/ml
  blocking of LPS effects on contraction to NE: ineffective in blocking the effects of LPS on the tissue
[3]; [13]
  contractile function / sensitivity to NE: significant decrease in sensitivity to NE
  maximum contraction / ring responses to NE: tended to suppress ring responses to NE; also recorded: apparent, but non-significant, diminution in maximum contraction
[4]
  inhibition of myosin light chain kinase: inhibits
[5]; LPS 10 ng/ml plus HA1004 25 μM
  protection of maximal contractile performance to KCl: small but significant protection of maximal contractile performance
[5]; [10]
  protection against LPS-induced contractile dysfunction (KCl): did not protect the tissue against LPS-induced diminished sensitivity to KCl
[5]; [11]
  EC50: 49 mM
[5]; [12]
  EC50: 36 ± 3 mM
[5]; [13]
  maximum contraction to KCl: significant increases in maximum contraction; also recorded: augmented contractile responses to KCl
  sensitivity to KCl: no enhancement in sensitivity to KCl

## CCCCCCCCCCCCC/C=C/[C@@H](O)[C@@H](N)CO [Sphingosine, 4-trans-sphingenine]
[6]
  inhibition of PKC: capable of inhibiting PKC in vivo and in vitro
[7]; [14]
  EC50: 27 mM
[7]; [15]
  EC50: 24 ± 2 mM
[7]; sphingosine 20 μM only, no LPS
  contraction to KCl: suppressed contractions to NE and KCl; also recorded: significantly diminished maximum contractions to NE and KCl
[7]; [16]
  protection against LPS suppression of KCl-induced contraction: significantly protected
[7]; sphingosine 20 μM, whether or not LPS was present
  EC50 for KCl versus control rings: not significantly different from control rings
[8]
  solubility in water: not soluble in water
[9]; [14]
  EC50: 124 nM
[9]; [15]
  EC50: 21 nM
[9]; de-endothelialized rings, sphingosine 20 μM
  abrogation/prevention of LPS-induced contractile dysfunction: clearly abrogated the majority of the deleterious effects of LPS on rat aortic tissue contractile function; also recorded: can be prevented
[9]; sphingosine 20 μM only, no LPS
  contraction to NE: suppressed contractions to NE and KCl; also recorded: significantly diminished maximum contractions to NE and KCl
[9]; [16]
  protection against LPS suppression of NE-induced contraction: significantly protected
  sensitivity to NE versus control rings: remained less than that of control rings
[9]; sphingosine 20 μM plus LPS 35 ng/ml, P<0.05
  sensitivity to NE versus rings exposed only to LPS: more sensitive to NE than rings exposed only to LPS
